According to patent US11066414B2, “Cot modulators and methods of use thereof” (Gilead Sciences, Inc., priority 2015, dated 2021):
pEC50, pIC50: −log10 of the molar value.

Legend:
Human Cot = Human Cot (Homo sapiens (Human), UniProt P41279); experiment: High Throughput Cot Biochemical Assay; settings: IC50 HTRF, Cot HTRF (TR-FRET) biochemical assay
TNFα = experiment: Cot Monocyte TNFα Cell Based Assay; settings: Homo sapiens, Monocyte, read-out: EC50 TNF, LPS-stimulated human monocytes, TNFα

Chain of Human Cot (P41279 30-397): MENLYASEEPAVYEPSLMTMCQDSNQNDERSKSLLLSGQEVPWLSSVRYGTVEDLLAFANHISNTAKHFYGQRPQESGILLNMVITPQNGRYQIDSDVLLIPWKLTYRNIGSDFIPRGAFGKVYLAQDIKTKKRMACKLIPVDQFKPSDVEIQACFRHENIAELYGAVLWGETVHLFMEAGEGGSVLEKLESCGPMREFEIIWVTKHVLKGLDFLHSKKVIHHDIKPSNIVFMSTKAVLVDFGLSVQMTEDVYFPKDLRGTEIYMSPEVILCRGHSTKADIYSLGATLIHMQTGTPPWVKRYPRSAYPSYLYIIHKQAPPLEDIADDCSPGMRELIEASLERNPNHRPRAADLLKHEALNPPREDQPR

Row | Compound | pIC50 (Human Cot) | pEC50 (TNFα)
1 | [2H][C@](Nc1cc(Cl)c2ncc(C#N)c(NC3CCOCC3(C)C)c2c1)(c1ccc(F)nc1)c1cn(C2CC2)nn1 (stereo partly drawn) [Example 92, 8-chloro-6-(((S)-(1-cyclopropyl-1H-1,2,3-triazol-4-yl)(6-fluoropyridin-3-yl)methyl-d)amino)-4-((3,3-dimethyltetrahydro-2H-pyran-4-yl)amino)quinoline-3-carbonitrile] | 8.22 | 7.19
2 | [2H]C(Nc1cc(Cl)c2ncc(C#N)c(NC(CCC#N)c3ccccc3)c2c1)(c1ccc(F)nc1)c1cn(C2CC2)nn1 (centres unmarked) [Example 93, 8-chloro-4-((3-cyano-1-phenylpropyl)amino)-6-(((1-cyclopropyl-1H-1,2,3-triazol-4-yl)(6-fluoropyridin-3-yl)methyl-d)amino)quinoline-3-carbonitrile] | 8.15 | 7.13
3 | [2H][C@](Nc1cc(Cl)c2ncc(C#N)c(Nc3ccc(OC)c(Cl)c3)c2c1)(c1ccc(F)nc1)c1cn(C2CC2)nn1 [Example 96, (S)-8-chloro-4-((3-chloro-4-methoxyphenyl)amino)-6-(((1-cyclopropyl-1H-1,2,3-triazol-4-yl)(6-fluoropyridin-3-yl)methyl-d)amino)quinoline-3-carbonitrile] | 7.96 | 6.76
4 | [2H][C@](Nc1cc(OC)c2ncc(C#N)c(N[C@H](CC)c3ccccc3)c2c1)(c1ccc(F)nc1)c1cn(C2CC2)nn1 [Example 97, 6-(((S)-(1-cyclopropyl-1H-1,2,3-triazol-4-yl)(6-fluoropyridin-3-yl)methyl-d)amino)-8-methoxy-4-(((R)-1-phenylpropyl)amino)-quinoline-3-carbonitrile] | 7.70 | 6.45
5 | [2H][C@](Nc1cc(OC)c2ncc(C#N)c(NCC(C)(C)C)c2c1)(c1ccc(F)nc1)c1cn(C2CC2)nn1 [Example 98, (S)-6-(((1-cyclopropyl-1H-1,2,3-triazol-4-yl)(6-fluoropyridin-3-yl)methyl-d)amino)-8-methoxy-4-(neopentylamino)quinoline-3-carbonitrile] | 7.31 | 6.09
6 | [2H]C(Nc1cc(Cl)c2ncc(C#N)c(N[C@H](CC)c3ccccc3)c2c1)(c1cn(C2CC2)nn1)c1scnc1C (stereo partly drawn) [Example 101, 8-chloro-6-(((1-cyclopropyl-1H-1,2,3-triazol-4-yl)(4-methylthiazol-5-yl)methyl-d)amino)-4-(((R)-1-phenylpropyl)amino)quinoline-3-carbonitrile] | 8.30 | 6.46

Stronger by pIC50 (Human Cot), values ahead:

Row | pIC50 (Human Cot) | pEC50 (TNFα) | Compound
7 | 8.70 | 7.28 | CC(C)(C)CNc1c(C#N)cnc2c(Cl)cc(NC(c3cn(C4CC4)nn3)c3csc4c3CCN(C3COC3)C4)cc12 (centres unmarked) [Example 91, 8-chloro-6-(((1-cyclopropyl-1H-1,2,3-triazol-4-yl)(6-(oxetan-3-yl)-4,5,6,7-tetrahydro-thieno[2,3-c]pyridin-3-yl)-methyl)amino)-4-(neopentylamino)-quinoline-3-carbonitrile]
8 | 8.70 | 6.89 | [2H][C@](Nc1cc(Cl)c2ncc(C#N)c(Nc3cccc(Cl)c3OC)c2c1)(c1ccc(F)nc1)c1cn(C2CC2)nn1 [Example 94, (S)-8-chloro-4-((3-chloro-2-methoxyphenyl)amino)-6-(((1-cyclopropyl-1H-1,2,3-triazol-4-yl)(6-fluoropyridin-3-yl)methyl-d)amino)quinoline-3-carbonitrile]
9 | 8.52 | 6.84 | [2H][C@](Nc1cc(C#N)c2ncc(C#N)c(NCC(C)(C)C)c2c1)(c1ccc(F)nc1)c1cn(C)nn1 [Example 99, (S)-6-(((6-fluoropyridin-3-yl)(1-methyl-1H-1,2,3-triazol-4-yl)methyl-d)amino)-4-(neopentylamino)quinoline-3,8-dicarbonitrile]
10 | 8.52 | 6.85 | [2H][C@](Nc1cc(C#N)c2ncc(C#N)c(N[C@H](CC#N)c3ccccc3)c2c1)(c1ccc(F)nc1)c1cn(C2CC2)nn1 [Example 100, 4-(((R)-2-cyano-1-phenylethyl)amino)-6-(((S)-(1-cyclopropyl-1H-1,2,3-triazol-4-yl)(6-fluoropyridin-3-yl)methyl-d)amino)quinoline-3,8-dicarbonitrile]
